Source: patent US9890133B2 (priority 2011, dated 2018)
Values after ≈ are worked out from the molar mass of the structure shown. Read-outs that look alike come from different tables or passages of the source.

Assays:
[1] = test system: 48 rhinovirus types and coxsackievirus A21, B3, enterovirus 70 and echovirus 11; settings: cell culture; cited from earlier work
[2] = clinical studies; cited from earlier work
[3] = in vitro; settings: human
[4] = test system: Poliovirus 3; test: microbe, parasite or virus in culture; type: cell-based; settings: Enterovirus C
[5] = cited from earlier work; for metabolization and excretion / bioavailability: in vivo
[6] = test system: rhinovirus infections; settings: treatment of rhinovirus infections; cited from earlier work
[7] = in vivo; cited from earlier work
[8] = cited from earlier work

Structure (SMILES)	melting point [°C]	CC50 ([3]; Picorana CC50) [µg/mL]	other results
CCOC(=O)/C=C/[C@H](C[C@@H]1CCNC1=O)NC(=O)[C@@H](CC(=O)[C@@H](NC(=O)c1cc(C)on1)C(C)C)Cc1ccc(F)cc1 [AG 7088]			concentration range with antiviral effect [1]: nanomolar concentration range
CC(C)S(=O)(=O)n1c(N)nc2ccc(/C(=N/O)c3ccccc3)cc21 [Enviroxime]			pharmacokinetics [2]: bad pharmacokinetics; side effects [2]: unwanted side effects; therapeutic effects [2]: insignificant or few therapeutic effects
CC(C)c1ccc2c(c1)OC1(OC(=O)/C=C/c3ccccc3)c3ccccc3C(=O)C21OC(=O)/C=C/c1ccccc1 (centres unmarked) [Example 34, (2E,2′E)-7-Isopropyl-10-oxo-9b,10-dihydro-4bH-benzo[d]indeno[1,2-b]furan-4b,9b-diyl bis(3-phenylacrylate)]	111 to 113	> 50	
C=CC(=O)OC12Oc3cc(C(C)C)ccc3C1(O)C(=O)c1ccccc12 (centres unmarked) [Example 35, 9b-Hydroxy-7-isopropyl-10-oxo-9b,10-dihydro-4bH-benzo[d]indeno[1,2-b]furan-4b-yl acrylate]	95 to 97	46.7 (≈ 133 µM)	
CC(C)c1ccc2c(c1)OC1(OC(=O)c3ccco3)c3ccccc3C(=O)C21O (centres unmarked) [Example 36, 9b-Hydroxy-7-isopropyl-10-oxo-9b,10-dihydro-4bH-benzo[d]indeno[1,2-b]furan-4b-yl furane-2-carboxylatefurane-2-carboxylic acid]	116 to 120	9.34 (≈ 23.9 µM)	
CCOC(=O)OC12Oc3cc(C(C)C)ccc3C1(OC(=O)OCC)C(=O)c1ccccc12 (centres unmarked) [Example 37, Diethyl 7-isopropyl-10-oxo-9b,10-dihydro-4bH-benzo[d]indeno[1,2-b]furane-4b,9b-diyl dicarbonate]	150 to 153	9.68 (≈ 22 µM)	
CCOC(=O)OC12Oc3cc(C(C)C)ccc3C1(O)C(=O)c1ccccc12 (centres unmarked) [Example 38, Ethyl 9b-hydroxy-7-isopropyl-10-oxo-9b,10-dihydro-4bH-benzo[d]indeno[1,2-b]furan-4b-yl carbonate]	144 to 147	9.5 (≈ 25.8 µM)	
COC(=O)c1ccc2c(c1)C1(O)C(=O)c3ccccc3C1(O)O2 (centres unmarked) [Example 39, Methyl 4b,9b-dihydroxy-10-oxo-9b,10-dihydro-4bH-benzo[d]indeno[1,2-b]furan-8-carboxylate]	220 to 223	45.1 (≈ 144 µM)	
CCN(CC)C(=O)OC12Oc3cc(C(C)C)ccc3C1(O)C(=O)c1ccccc12 (centres unmarked) [Example 40, 9b-Hydroxy-7-isopropyl-10-oxo-9b,10-dihydro-4bH-benzo[d]indeno[1,2-b]furan-4b-yl diethylcarbamate]	127 to 130	44 (≈ 111 µM)	
CCN(CC)C(=O)OC12C(=O)c3ccccc3C1(O)Oc1cc(C(C)C)ccc12 (centres unmarked) [Example 41, 4b-Hydroxy-7-isopropyl-10-oxo-9b,10-dihydro-4bH-benzo[d]indeno[1,2-b]furan-9b-yl diethylcarbamate]	101 to 104	27.1 (≈ 68.6 µM)	
CC(C)c1ccc2c(c1)OC1(O)c3cc(F)c(F)cc3C(=O)C21O (centres unmarked) [Example 42, 2,3-Difluoro-4b,9b-dihydroxy-7-isopropyl-4bH-benzo[d]indeno[1,2-b]furan-10(9bH)-one]	134 to 136	8.94 (≈ 26.9 µM)	
CC(C)c1ccc2c(c1)O[C@@]1(O)c3cccc(O)c3C(=O)[C@@]21O [Example 43, 1,4b,9b-Trihydroxy-7-isopropyl-4bH-benzo[d]indeno[1,2-b]furan-10(9bH)-one]	205 to 207		CC50 [3]: 33.2 µg/mL (≈ 106 µM)
CC(C)c1ccc2c(c1)O[C@@]1(O)c3cc4ccccc4cc3C(=O)[C@@]21O [Example 44, 4b,9b-Dihydroxy-7-isopropyl-1H-cyclopenta[b]naphthalene o[1,2-b]furan-10(9bH)-one]	186 to 189	6.25 (≈ 18 µM)	
CC(=O)Nc1cccc2c1C(=O)C1(O)c3ccc(C(C)C)cc3OC21O (centres unmarked) [Example 48, N-(4b,9b-Dihydroxy-7-isopropyl-10-oxo-9b,10-dihydro-4bH-benzo[d]indeno[1,2-b]furan-1-yl)acetamide]	152 to 154	35 (≈ 99.1 µM)	
COC(=O)Nc1cccc2c1C(=O)C1(O)c3ccc(C(C)C)cc3OC21O (centres unmarked) [Example 49, Methyl 4b,9b-dihydroxy-7-isopropyl-10-oxo-9b,10-dihydro-4bH-benzo[d]indeno[1,2-b]furan-1-ylcarbamate]	96 to 99	9.18 (≈ 24.9 µM)	
CCc1ccc2c(c1)OC1(O)c3cccc(N)c3C(=O)C21O (centres unmarked) [Example 50, 1-Amino-7-ethyl-4b,9b-dihydroxy-4b,9b-dihydro-5-oxa-indeno[2,1-a]inden-10-one]	200 to 203		EC50 ([4]; HeLa37, 48 h, read-out: Poliovirus 3 EC50): < 0.1 µg/mL; EC50 ([4]; read-out: Poliovirus3 EC50): < 0.1 µg/mL; CC50 [3]: 49.9 µg/mL (≈ 168 µM)
COC(=O)O[C@@]12Oc3cc(C(C)C)ccc3[C@]1(OC(=O)OC)C(=O)c1c(N)cccc12 [Example 51]	110 to 120	17.5 (≈ 40.9 µM)	

Structure (SMILES)	melting point [°C]	CC50 ([3]; Picorana CC50) [µg/mL]	other results
CCc1ccc2c(c1)OC1(O)c3ccc(O)cc3C(=O)C21O (centres unmarked) [Example 52, 7-Ethyl-2,4b,9b-trihydroxy-4b,9b-dihydro-5-oxa-indeno[2,1-a]inden-10-one]	208 to 213	> 50	
CC(=O)OC12Oc3cc(C(C)C)ccc3C1(OC(C)=O)C(=O)c1c([N+](=O)[O-])cccc12 (centres unmarked) [Example 53]	201 to 203	45.6 (≈ 107 µM)	
CC(C)NC(=O)Nc1cccc2c1C(=O)C1(O)c3ccc(C(C)C)cc3OC21O (centres unmarked) [Example 55]	81 to 85	7.49 (≈ 18.9 µM)	
CC(=O)Nc1cccc2c1C(=O)C1(N)c3ccc(C(C)C)cc3OC21O (centres unmarked) [Example 56]	152 to 156	42.2 (≈ 120 µM)	
CC(=O)Nc1cccc2c1C(=O)C1(NC(C)=O)c3ccc(C(C)C)cc3OC21O (centres unmarked) [Example 57, N,N′-(4b-Hydroxy-7-isopropyl-10-oxo-9b,10-dihydro-4bH-benzo[d]indeno[1,2-b]furane-1,9b-diyl)diacetamide]	189 to 191	46.7 (≈ 118 µM)	
CC(C)c1ccc2c(c1)OC1(O)c3c(N)ccc(N)c3C(=O)C21O (centres unmarked) [Example 61, 1,4-diamino-4b,9b-dihydroxy-7-isopropyl-4bH-benzo[d]indeno[1,2-b]furan-10(9bH)-one]	223 to 231	> 50	
CC(C)c1ccc2c(c1)OC1(O)c3ccc(N)c(N)c3C(=O)C21O (centres unmarked) [Example 62, 1,2-Diamino-4b,9b-dihydroxy-7-isopropyl-4bH-indeno[1,2-b]benzofuran-10(9bH)-one]	163 to 166	> 50	
CC(C)c1ccc2c(c1)OC1(OCCO)c3ccccc3C(=O)C21O (centres unmarked) [Example 79, 9b-Hydroxy-4b-(2-hydroxyethoxy)-7-isopropyl-4bH-benzo[d]indeno[1,2-b]furan-10(9bH)-one]	100 to 105	10.4 (≈ 30.6 µM)	
CC(C)c1ccc2c(c1)O[C@@]1(O)c3cccc([N+](=O)[O-])c3C(=O)[C@@]21O [Example 80, 4b,9b-Dihydroxy-7-isopropyl-1-nitro-4bH-benzo[d]indeno[1,2-b]furan-10(9bH)-one]	186 to 188	47.5 (≈ 139 µM)	
COc1cc2c(cc1OC)[C@]1(O)Oc3cc(C(C)C)ccc3[C@]1(O)C2=O [Example 81, 4b,9b-Dihydroxy-7-isopropyl-2,3-dimethoxy-4bH-benzo[d]indeno[1,2-b]furan-10(9bH)-one]	127 to 129	8.61 (≈ 24.2 µM)	
Cc1cc2c(cc1C)C1(O)Oc3cc(C(C)C)ccc3C1(O)C2=O (centres unmarked) [Example 82, 4b,9b-dihydroxy-7-isopropyl-2,3-dimethyl-4bH-benzo[d]indeno[1,2-b]furan-10(9bH)-one]	138 to 140	1.9 (≈ 5.86 µM)	
COC(=O)N[C@@]12C(=O)c3ccccc3[C@]1(O)Oc1cc(C(C)C)ccc12 [Example 84, Methyl (4bS,9bS)-4b-hydroxy-7-isopropyl-10-oxo-9b,10-dihydro-4bH-benzo[d]indeno[1,2-b]furan-9b-ylcarbamate]	161 to 163	> 50	
CC(=O)Nc1cccc2c1C(=O)[C@@]1(NC(C)=O)c3ccc(C(C)C)cc3O[C@@]21O [Example 87, N,N′-((4bS,9bS)-4b-Hydroxy-7-isopropyl-10-oxo-9b,10-dihydro-4bH-benzo[d]indeno[1,2-b]furane-1,9b-diyl)diacetamide]	205 to 207	36.8 (≈ 93.2 µM)	
Cc1cc(CCCOc2c(C)cc(-c3noc(C(F)(F)F)n3)cc2C)on1 [Pleconaril, pleconaril]			oral bioavailability ([5]; oral): very good oral bioavailability; side effects [6]: side effects were observed; therapy success [6]: therapy success was too low
Cc1cc(CCCCCOc2c(Cl)cc(C3=NCCO3)cc2Cl)on1 [WIN 54954]			metabolization and excretion [5]: rapid metabolization and excretion; side effects [7]: skin rash
CCC(=O)C(CCCCCCOc1ccc(OC)cc1Cl)C(=O)CC [arildone, Arildone]			bioavailability [5]: low bioavailability; solubility [8]: poor solubility
Cc1cc(CCCCCCCOc2ccc(C3=NCCO3)cc2)on1 [disoxaril]			bioavailability [5]: low bioavailability; metabolization and excretion [5]: rapid metabolization and excretion
